biological target: Voltage-gated inwardly rectifying potassium channel KCNH2 (Homo sapiens, UniProt Q12809); assay: (§1) Inhibition of human ERG in MCF7 cells; settings: not given
Sequence (Q12809 whole entry): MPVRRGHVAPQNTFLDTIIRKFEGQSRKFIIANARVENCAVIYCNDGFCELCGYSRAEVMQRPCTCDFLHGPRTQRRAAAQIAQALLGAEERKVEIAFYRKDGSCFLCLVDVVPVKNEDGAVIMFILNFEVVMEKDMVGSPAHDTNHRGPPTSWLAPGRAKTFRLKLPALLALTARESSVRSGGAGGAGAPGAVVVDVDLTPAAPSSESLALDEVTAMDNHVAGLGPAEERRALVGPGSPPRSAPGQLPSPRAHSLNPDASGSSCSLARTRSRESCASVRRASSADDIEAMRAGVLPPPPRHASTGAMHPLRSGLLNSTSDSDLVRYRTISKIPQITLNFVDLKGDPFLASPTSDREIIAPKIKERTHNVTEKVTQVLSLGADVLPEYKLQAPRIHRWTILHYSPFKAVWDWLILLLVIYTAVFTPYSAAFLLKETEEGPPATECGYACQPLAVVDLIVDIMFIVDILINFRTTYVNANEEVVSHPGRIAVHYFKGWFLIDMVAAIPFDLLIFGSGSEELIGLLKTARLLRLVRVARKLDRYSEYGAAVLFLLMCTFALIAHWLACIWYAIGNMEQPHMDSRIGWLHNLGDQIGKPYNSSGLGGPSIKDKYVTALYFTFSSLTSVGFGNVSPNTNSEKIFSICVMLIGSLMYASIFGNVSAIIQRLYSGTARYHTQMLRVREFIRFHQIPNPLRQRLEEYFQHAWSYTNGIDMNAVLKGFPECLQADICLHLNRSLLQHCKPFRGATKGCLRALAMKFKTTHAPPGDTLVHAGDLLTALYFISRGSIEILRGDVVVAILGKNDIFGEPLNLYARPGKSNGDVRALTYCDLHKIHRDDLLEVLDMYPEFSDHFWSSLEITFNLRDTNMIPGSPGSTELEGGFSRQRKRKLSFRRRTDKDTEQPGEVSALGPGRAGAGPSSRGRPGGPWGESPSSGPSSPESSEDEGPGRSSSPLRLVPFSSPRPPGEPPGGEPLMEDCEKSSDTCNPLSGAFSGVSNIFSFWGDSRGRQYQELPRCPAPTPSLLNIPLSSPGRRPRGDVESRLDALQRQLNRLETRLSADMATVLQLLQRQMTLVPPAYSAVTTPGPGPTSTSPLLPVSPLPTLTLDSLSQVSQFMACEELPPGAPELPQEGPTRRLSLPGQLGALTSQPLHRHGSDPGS

SMILES	IC50 [µM]
COc1c(N2CCNC(C)C2)c(F)cc2c(=O)c(C(=O)O)cn(C3CC3)c12 (stereo not given) [GATIFLOXACIN]	129

same assay, conditions: human, MCF7 cells

SMILES	pIC50
C[C@@H]1CN(c2c(F)c(N)c3c(=O)c(C(=O)O)cn(C4CC4)c3c2F)C[C@H](C)N1 [SPARFLOXACIN]	4.58

same assay, conditions: human, mcf7

SMILES	pIC50
CN(c1nccc(=O)[nH]1)C1CCN(c2nc3ccccc3n2Cc2ccc(F)cc2)CC1 [MIZOLASTINE]	6.45

biological target: hERG (KCNH2) (Homo sapiens, UniProt Q12809); assay: as §1; settings: human, mcf7
Sequence (Q12809 whole entry): as above

SMILES	IC50 [µM]
CN1CCN(CCCCN2C(=O)CN(/N=C/c3ccc(-c4ccc(Cl)cc4)o3)C2=O)CC1 [AZIMILIDE]	0.562

test system: not listed separately; assay: Lipophilicity, log D at pH 7.0; settings: buffer

SMILES	logD
CCCc1nn(C)c2c(=O)[nH]c(-c3cc(S(=O)(=O)N4CCN(C)CC4)ccc3OCC)nc12	2.29
CN(C)CCC=C1c2ccccc2CCc2ccccc21 [AMITRIPTYLINE]	3.33
COc1ccc(CCN2CCC(Nc3nc4ccccc4n3Cc3ccc(F)cc3)CC2)cc1 [ASTEMIZOLE]	4.14
CN1CCN(CCCCN2C(=O)CN(/N=C/c3ccc(-c4ccc(Cl)cc4)o3)C2=O)CC1 [AZIMILIDE]	2.05
CC(C)COCC(CN(Cc1ccccc1)c1ccccc1)N1CCCC1 (stereo not given) [BEPRIDIL]	4.49
CN(C)CCCN1c2ccccc2Sc2ccc(Cl)cc21 [CHLORPROMAZINE]	2.99
COc1cc(N)c(Cl)cc1C(=O)NC1CCN(CCCOc2ccc(F)cc2)CC1OC (stereo not given) [CISAPRIDE]	2.05
CN1CCN(C2=Nc3cc(Cl)ccc3Nc3ccccc32)CC1 [CLOZAPINE]	4.41
COC(=O)[C@H]1[C@@H](OC(=O)c2ccccc2)C[C@@H]2CC[C@H]1N2C [COCAINE]	0.41
COc1ccc([C@@H]2Sc3ccccc3N(CCN(C)C)C(=O)[C@@H]2OC(C)=O)cc1 [DILTIAZEM]	1.62
CN(CCOc1ccc(NS(C)(=O)=O)cc1)CCc1ccc(NS(C)(=O)=O)cc1 [DOFETILIDE]	0.68
O=C(O[C@@H]1C[C@@H]2C[C@H]3C[C@H](C1)N2CC3=O)c1c[nH]c2ccccc12 [DOLASETRON]	2.6
O=c1[nH]c2ccccc2n1CCCN1CCC(n2c(=O)[nH]c3cc(Cl)ccc32)CC1 [DOMPERIDONE]	3.15
O=C(CCCN1CC=C(n2c(=O)[nH]c3ccccc32)CC1)c1ccc(F)cc1 [DROPERIDOL]	2.25
COc1c(N2CCNC(C)C2)c(F)cc2c(=O)c(C(=O)O)cn(C3CC3)c12 (stereo not given) [GATIFLOXACIN]	-2.96
COc1ccc(Cl)cc1C(=O)NCCc1ccc(S(=O)(=O)NC(=O)NC2CCCCC2)cc1 [GLYBURIDE]	2.23

SMILES	logD
CN1C2CCCC1CC(NC(=O)c1nn(C)c3ccccc13)C2 (stereo not given) [GRANISETRON]	-1.72
Cc1c(F)c(N2CCNC(C)C2)cc2c1c(=O)c(C(=O)O)cn2C1CC1 (stereo not given) [GREPAFLOXACIN]	-1.47
CCCCN(CCCC)CCC(O)c1cc2c(Cl)cc(Cl)cc2c2cc(C(F)(F)F)ccc12 (stereo not given) [HALOFANTRINE]	5.68
O=C(CCCN1CCC(O)(c2ccc(Cl)cc2)CC1)c1ccc(F)cc1 [HALOPERIDOL]	1.82
COCC(=O)O[C@]1(CCN(C)CCCc2nc3ccccc3[nH]2)CCc2cc(F)ccc2[C@@H]1C(C)C [MIBEFRADIL]	1.96
CN(c1nccc(=O)[nH]1)C1CCN(c2nc3ccccc3n2Cc2ccc(F)cc2)CC1 [MIZOLASTINE]	1.96
C1CCC(C(CC2CCCCN2)C2CCCCC2)CC1 (stereo not given) [PERHEXILINE]	2.81
O=c1[nH]c2ccccc2n1C1CCN(CCCC(c2ccc(F)cc2)c2ccc(F)cc2)CC1 [PIMOZIDE]	5.11
Cc1nc2n(c(=O)c1CCN1CCC(c3noc4cc(F)ccc34)CC1)CCCC2 [RISPERIDONE]	0.71
O=C1NCCN1CCN1CCC(c2cn(-c3ccc(F)cc3)c3ccc(Cl)cc23)CC1 [SERTINDOLE]	2.65
C[C@@H]1CN(c2c(F)c(N)c3c(=O)c(C(=O)O)cn(C4CC4)c3c2F)C[C@H](C)N1 [SPARFLOXACIN]	-3.4
Fc1ccc(Cn2c(NC3CCNCC3)nc3ccccc32)cc1 [TECASTEMIZOLE]	0.16
CC(C)(C)c1ccc(C(O)CCCN2CCC(C(O)(c3ccccc3)c3ccccc3)CC2)cc1 (stereo not given) [TERFENADINE]	4.11
CSc1ccc2c(c1)N(CCC1CCCCN1C)c1ccccc1S2 (stereo not given) [THIORIDAZINE]	3.83
O=C1Cc2cc(CCN3CCN(c4nsc5ccccc45)CC3)c(Cl)cc2N1 [ZIPRASIDONE]	3.93
